{"source": "patent US20080146651A1", "about": "“Injectable Composition for the Treatment of Cancers” (priority 2004, published 2008)", "experiment": "Stability test of paclitaxel according to varying pH values (HPLC residual percentage)", "format": "physicochemical", "conditions": "for Initial residual percentage (0 hour) / Residual percentage after 24 hours / Residual percentage after 48 hours: 40° C.", "experimental": "Paclitaxel was completely dissolved using glycofurol and Solutol HS15, and was then diluted in a McIlvaine buffer at pH 3˜8. The dilution was allowed to stand at 40° C. After 24 and 48 hours, the residual percentages of paclitaxel were measured by HPLC."}
{"molecule": "CC(=O)O[C@H]1C(=O)[C@@]2(C)[C@H]([C@H](OC(=O)c3ccccc3)[C@]3(O)C[C@H](OC(=O)[C@H](O)[C@@H](NC(=O)c4ccccc4)c4ccccc4)C(C)=C1C3(C)C)[C@]1(OC(C)=O)CO[C@@H]1C[C@@H]2O", "note": "[paclitaxel]", "values": [{"measurement": "residual percentage", "setting": "around pH 5, for 48 hours", "value": "≥ 99", "unit": "%"}, {"measurement": "Initial residual percentage (0 hour)", "setting": "pH 3, McIlvaine buffer", "value": 100, "unit": "%"}, {"measurement": "Residual percentage after 24 hours", "setting": "pH 3, McIlvaine buffer", "value": 99.239, "unit": "%"}, {"measurement": "Residual percentage after 48 hours", "setting": "pH 3, McIlvaine buffer", "value": 97.509, "unit": "%"}, {"measurement": "Initial residual percentage (0 hour)", "setting": "pH 4, McIlvaine buffer", "value": 100, "unit": "%"}, {"measurement": "Residual percentage after 24 hours", "setting": "pH 4, McIlvaine buffer", "value": 99.025, "unit": "%"}, {"measurement": "Residual percentage after 48 hours", "setting": "pH 4, McIlvaine buffer", "value": 98.221, "unit": "%"}, {"measurement": "stability of paclitaxel with the passage of time", "setting": "pH 4˜6", "value": "stable"}, {"measurement": "residual percentage", "setting": "pH 4˜6, for 48 hours", "value": "≥ 98", "unit": "%"}, {"measurement": "Initial residual percentage (0 hour)", "setting": "pH 5, McIlvaine buffer", "value": 100, "unit": "%"}, {"measurement": "Residual percentage after 24 hours", "setting": "pH 5, McIlvaine buffer", "value": 99.414, "unit": "%"}, {"measurement": "Residual percentage after 48 hours", "setting": "pH 5, McIlvaine buffer", "value": 99.292, "unit": "%"}, {"measurement": "Initial residual percentage (0 hour)", "setting": "pH 6, McIlvaine buffer", "value": 100, "unit": "%"}, {"measurement": "Residual percentage after 24 hours", "setting": "pH 6, McIlvaine buffer", "value": 98.765, "unit": "%"}, {"measurement": "Residual percentage after 48 hours", "setting": "pH 6, McIlvaine buffer", "value": 98.183, "unit": "%"}, {"measurement": "Initial residual percentage (0 hour)", "setting": "pH 7, McIlvaine buffer", "value": 100, "unit": "%"}, {"measurement": "Residual percentage after 24 hours", "setting": "pH 7, McIlvaine buffer", "value": 96.109, "unit": "%"}, {"measurement": "Residual percentage after 48 hours", "setting": "pH 7, McIlvaine buffer", "value": 94.344, "unit": "%"}, {"measurement": "Initial residual percentage (0 hour)", "setting": "pH 8, McIlvaine buffer", "value": 100, "unit": "%"}, {"measurement": "Residual percentage after 24 hours", "setting": "pH 8, McIlvaine buffer", "value": 77.297, "unit": "%"}, {"measurement": "Residual percentage after 48 hours", "setting": "pH 8, McIlvaine buffer", "value": 57.38, "unit": "%"}]}
